# Source: ChEMBL document CHEMBL5724696, “Autophagy assay results for EUbOPEN Chemogenomics Library” (2024)
# Assays:
# U2OS [1] = test: (§1) Here: values are normalized to the positive (DMSO; basel flux = defined as 100% suppression) and negative (250nM Torin1; mTOR inhibitor; maximal inducer of autophagy defined as 0% suppression) control compounds and represented as % of ER-phagy suppression. […] The impact of autophagy induction on cells is complex and depends on the affected target. […] Of note, treatment concentrations may be sub-optimal for specific compounds, leading to false negative annotations.; type: functional, Homo sapiens; conditions: Compound Concentration 1 uM, Culturing Media DMEM, 1 % Penicillin/Streptomycin, 10% Fetal bovin serum Add-On: blasticidin, Screening Media Control DMEM, 10% Fetal bovin serum Add-On: 1 µg/ml Doxycyclin, Screening Media Samples DMEM, 10% Fetal bovin serum Add-On: 1 µg/ml Doxycyclin 250nM Torin1
# U2OS [2] = test: as §1; type: functional, Homo sapiens; conditions: Compound Concentration 1 uM, Culturing Media DMEM, 1 % Penicillin/Streptomycin, 10% Fetal bovin serum Add-On: blasticidin, Screening Media Control DMEM, 10% Fetal bovin serum Add-On: 1 µg/ml Doxycyclin, Screening Media Samples DMEM, 10% Fetal bovin serum Add-On: 1 µg/ml Doxycyclin 250nM Torin1; remark: listed apart in the source
Compound,ER-phagy suppression (U2OS [1]; Timepoint 12 hours) [%],ER-phagy suppression (U2OS [1]; Timepoint 24 hours) [%],ER-phagy suppression (U2OS [1]; Timepoint 36 hours) [%],ER-phagy suppression (U2OS [1]; Timepoint 54 hours) [%],ER-phagy suppression (U2OS [2]; Timepoint 12 hours) [%],ER-phagy suppression (U2OS [2]; Timepoint 24 hours) [%],ER-phagy suppression (U2OS [2]; Timepoint 36 hours) [%],ER-phagy suppression (U2OS [2]; Timepoint 60 hours) [%]
OCCn1cc(-c2ccc3c(c2)CCC3=NO)c(-c2ccncc2)n1,-23.6151,-59.1263,-53.5237,-39.7477,13.4101,0.6971,-0.91,0.4621
CCOc1cc(N2CCC(O)CC2)ccc1Nc1ncc2c(n1)N(C)c1ccccc1C(=O)N2C,-49.4363,-63.2462,-50.7543,-40.8997,41.1735,16.7232,17.4074,10.8345
Cc1ccc(-c2ccc3c(ccc4sc5c(c43)NC[C@@H](C)NC5=O)n2)cn1,-17.2516,-0.875,6.096,19.149,5.336,5.52,7.693,5.525
CC(=O)Nc1cccc(-n2c(=O)n(C3CC3)c(=O)c3c(Nc4ccc(I)cc4F)n(C)c(=O)c(C)c32)c1 [TRAMETINIB],-5.637,10.9132,18.5776,29.3457,22.5636,31.8836,34.8635,24.7233
CN1C(=O)[C@@H](N2CCc3cn(Cc4ccccc4)nc3C2=O)COc2ccccc21 [TP-030-1],-1.154,-18.125,-30.7242,-23.6126,-22.1461,-11.0455,-18.8351,-24.8138
O=C(NCCCN1CCOC1=O)c1cnc(NCc2cc(Br)ccc2Br)nc1NC1CCCC1,-5.816,-18.1911,-20.9165,-12.0292,-10.749,-21.0292,-39.1494,-40.5418
COc1cc(Nc2nc(C)cc(-c3cnn4nc(OC)ccc34)n2)cc(C(F)(F)F)c1,-17.1977,-30.7,-31.3882,-33.2663,-18.8933,-32.8701,-15.1622,-1.233
COc1cc(Nc2ccnc3ccc(Br)cc23)cc(OC)c1OC,45.26,43.6651,45.8783,55.0501,44.6642,57.8089,50.5911,41.5059
Cn1cnc2c(F)c(Nc3ccc(Br)cc3Cl)c(C(=O)NOCCO)cc21 [SELUMETINIB],-10.3683,3.869,4.29,11.1979,8.54,20.3816,25.3525,22.2273
Cc1ccc(N(C)c2cc(N(C)C3CC3)n3ncc(C#N)c3n2)cc1NC(=O)C1CC1,38.742,47.4692,65.8045,75.1314,27.2035,42.1045,58.091,60.0735
CN(C)C1CC(n2cnc(-c3ccc(F)cc3)c2-c2ccnc3[nH]ccc23)C1 (stereo not drawn),7.195,4.326,10.3106,11.0097,-29.1009,-31.4509,-16.9551,-15.1332
